# Results as given in patent US7470434B1, “Methods and compositions for blocking microbial adherence to eukaryotic cells” (priority 2007, dated 2008).
# Columns and labels:
# Format in all cases: in vivo, human
# [1] = test system: bacteria adherent to gingival epithelial cells; experiment: Treatment of gingival infection: microbial adherence to gingival epithelial cells (Giemsa-stained gingival scrapings); settings: for Gingival epithelial cells with 0 Bacteria / Gingival epithelial cells with 1-10 Bacteria / Gingival epithelial cells with 10-100 Bacteria / Gingival epithelial cells with Contiguous lawn: powder on gums twice daily
# Description: In this example isoleucine was applied as a pure crystalline powder directly to the gums. The individuals were normal human volunteers. Each individual had clinically evident low grade gingivitis, as determined by the puffiness of the gingival margin and a history of some bleeding during normal dental brushing. Oral health care comprised twice daily flossing and dental brushing with a non-medicated toothpaste. No oral antiseptic was used. The individuals were not taking antibiotics. Isoleucine was applied by application of powder on the fingertip to the outer and inner gum margins of the upper and lower jaws. The entirety of the gingival surface was covered manually, twice daily. The AM application was performed following breakfast, immediately after brushing. The PM application was conducted prior to retiring for sleep.
# Gingival surface was gently scrapped with the side of a rectangular glass cover slip and the material described was applied to a glass microscope slide and air-dried. The slide was stained in concentrated Giemsa stain for 1 min, then destained in water for 5 min. The slide was then air-dried and mounted with a cover slip cemented with Permount. Slides were examined by light microscopy at 100× and 400× magnification. Under these staining conditions bacteria were clearly visualized as dark blue particles against the pale gray epithelial cells.
# Gingival scrapings were taken in the morning prior to normal oral care and prior to eating. Prior to scraping, the subject rinsed the mouth with a cup of water to wash free particulate matter, unattached cells, and bacteria.
# Scrapings were taken 3 days and 1 day prior to isoleucine administration and 1, 3, 5, and 7 days during isoleucine application. […] The bacteria adherent were represented by several different species, distinguished by morphology. […] At least 200 bacteria were counted on the average on each cell.
# [2] = test system: diarrheal agent (nature not known); experiment: Amelioration of infectious diarrhea by oral isoleucine solution
# Experimental: In this example isoleucine was administered to treat infectious diarrhea. In this example three individuals were naturally innoculated by a common agent. The nature of the diarrheal agent is not known. The duration of diarrhea was consistent with an infectious etiology. Isoleucine was utilized based on the hypothesis that reduction in microbial adherence would likely limit the continued re-infection of the gut wall by the agent, and/or prevent attachment of opportunistic commensal organisms.
# Three members of a family traveling in the Middle East (MZ, BZ, JZ) contracted watery diarrhea, associated with food intolerance, following a meal they shared at a restaurant. Each individual had been in excellent health without prior history of GI complaints. All were unmedicated, including aspirin or antihistanines. […] Diarrhea was watery, without gross blood, minimal mucous, slight fever with chills, no nausea, and persistence of hunger. Peristalsis was vigorous and increased by ingestion of food. Each individual was placed on a diet restricted to clear liquids (juices and soda), digestible carbohydrates (bread, rice, candy). No medications were administered.
# Six days after ingestion of the diarrheal agent, one individual was begun on oral isoleucine (ILE) therapy, while the other two continued on restricted diets. ILE (#E-2025 Bachem, lot 511191) was dissolved in distilled water to 0.001%. One glass of ILE solution (about 250 ml) was consumed every several hours. A total of about 4 liters was consumed over 3½ days. A reduction in stool frequency was noted within 12 hours of initiation of ILE therapy.
# BZ and JZ both continued to experience diarrhea unabated until about 11 days after ingestion of the infectious agent, with stool frequency decreasing noticeably. […] Thus, isoleucine therapy was associated with a shortening of the duration of diarrhea by approximately three days.
# [3] = test system: bacterial vaginosis; experiment: Amelioration of bacterial vaginosis by local isoleucine powder
# Experimental: In this example isoleucine was administered locally to the vagina to treat the symptoms of bacterial vaginosis. By inhibiting the adherence of bacteria to the wall of the vagina, microbial growth, inflammation, and associated signs of malodorous discharge and symptoms such as pruritis can be treated. A person, with a normal menstrual cycle and in excellent health, experienced vaginal irritation and malodorous discharge associated with their cycle, generally beginning several days prior to the onset of their period. Isoleucine was self-administered as a powder locally within the vaginal cavity digitally, twice a day. Within 2 days symptoms of vaginosis disappeared. Isoleucine therapy was continued for several days following termination of menstrual discharge, and then stopped. […] Isoleucine was again administered during the following months, cycled as described initially.
# [4] = Amelioration of irritable bowel syndrome by isoleucine in yogurt
# Experimental: In this example isoleucine was administered to individuals who experienced irritable bowel syndrome (IBS). IBS is a loosely defined condition associated with bowel discomfort including abdominal bloating, nausea, pain and a sense of incomplete bowel movements. The etiology underlying IBS is unknown. It is our hypothesis that IBS results from adherence of certain “pathogenic” commensal organisms to the epithelial lining of certain segments of the GI tract, resulting in disturbance of normal host-bacteria relationships. […] Two women, each in their mid-50's, presented with a history of IBS of over 20 years, in each case. In each, IBS was characterized by a sense of bloating experienced after eating cooked or raw vegetables, fruits, and meat. Each individual experienced urgency to move her bowels several times a day to an extent that often awakened the individuals from sleep. Bloating was accompanied by abdominal discomfort, described as mild cramps. Individuals felt “gassy” most of the day. Each individual was given isoleucine, 1 tsp, twice a day, each dose mixed in ½ cup of yogurt. The yogurt was included to promote reinoculation of the GI tract with probiotic “good” bacteria. In each case, it was known from previous experience that yogurt itself had little effect on the IBS experienced by these individuals. Within 2 day so isoleucine administration, bloating, urgency to defecate, and gassiness had disappeared. Both individuals described the state of their bowel function as “normal”, for the first time in 20 years. […] Each was then withdrawn from isoleucine, and provided yogurt unsupplemented with isoleucine. Within about 2 days both women recorded a reappearance of the former symptoms of IBS.
# [5] = Day 1 of isoleucine application
# [6] = Day 3 of isoleucine application
# [7] = Day 7 of isoleucine application
# [8] = 3rd day of ILE therapy, individual
structure (smiles),measurement,setting,value
CC[C@H](C)[C@H](N)C(=O)O [isoleucine],Gingival epithelial cells with 0 Bacteria,[1]; [5],0 % cells
same,Gingival epithelial cells with 1-10 Bacteria,[1]; [5],10 % cells
same,Gingival epithelial cells with 10-100 Bacteria,[1]; [5],10 % cells
same,Gingival epithelial cells with Contiguous lawn,[1]; [5],80 % cells
same,Adherent bacteria in gingival smear,[1]; Day 3,dramatic reduction
same,"Cells fully covered with bacteria, of 100 cells examined",[1]; Day 3,40
same,Microcolonies (contiguous groupings of greater than 4 organisms) on cells,[1]; Day 3,Few
same,Neutrophils in gingival smear (sign of inflammation),[1]; Day 3,No neutrophils were evident
same,Total adherent bacteria per cell (most cells),[1]; Day 3,< 100
same,Gingival epithelial cells with 0 Bacteria,[1]; [6],15 % cells
same,Gingival epithelial cells with 1-10 Bacteria,[1]; [6],15 % cells
same,Gingival epithelial cells with 10-100 Bacteria,[1]; [6],30 % cells
same,Gingival epithelial cells with Contiguous lawn,[1]; [6],40 % cells
same,Cells completely free of bacteria,[1]; Day 7,80%
same,Cells fully covered with adherent bacteria,[1]; Day 7,5%
same,Cells with 1 to 10 bacteria/cell,[1]; Day 7,15%
same,Breath as described by an examiner,"[1]; Day 7, in the AM, prior to oral hygiene",free of odor
same,Gingival epithelial cells with 0 Bacteria,[1]; [7],80 % cells
same,Gingival epithelial cells with 1-10 Bacteria,[1]; [7],15 % cells
same,Gingival epithelial cells with 10-100 Bacteria,[1]; [7],0 % cells
same,Gingival epithelial cells with Contiguous lawn,[1]; [7],5 % cells
same,Change in the number of epithelial cells covered with a dense coat of bacteria,"[1]; gingival smear, Day 1 following initiation",little change
same,Food tolerance,[2]; [8],cheese and chicken tolerated
same,Stools passed,[2]; [8],no stools were passed
same,Shortening of the duration of diarrhea,[2]; MZ on isoleucine versus BZ and JZ on restricted diet only,approximately three
same,Day following ILE treatment by which a normal stool was passed and the diarrheal episode had passed,[2]; individual MZ,≤ 4 days
same,Time to reduction in stool frequency after initiation of ILE therapy,"[2]; one individual, 0.001% ILE in distilled water, about 250 ml every several hours, begun six days after ingestion of agent",≤ 12 h
same,Status following cessation of isoleucine administration,[3]; after therapy continued several days past menstrual discharge,remained symptom free
same,Overall outcome of chronic vaginosis,"[3]; repeated cycled administration in following months, based on symptoms and signs",effectively cured
same,Response during maintenance,[4]; maintained on isoleucine for 1 month,consistent response
same,State of bowel function as described by the individuals,[4]; on isoleucine 1 tsp twice a day in yogurt,normal
same,Time to reappearance of former symptoms of IBS after withdrawal from isoleucine,[4]; yogurt unsupplemented with isoleucine,≤ 2 days
